Measurements as given in a melting point compilation (Tetko et al.; mined from patent text by program, amines drawn as free bases though some values may be those of a salt).

Structure (SMILES) | melting point [°C]
Cc1ccc2c(c1)S(=O)(=O)N=C(NC(C)C)N2 | 266 to 268
C=Cc1ccccc1N1CCCCC1 | 147 to 150
Clc1ccc(-c2cn3cc(Br)ccc3n2)cc1 | 210 to 211
O=C(O)C=CC=Cc1cc(O)c(O)cc1Cl | 203 to 206
COc1ccc(Cn2c3c(c4cc(OC)c(OC)cc4c2=O)C(=O)c2cc4c(cc2-3)OCO4)cc1 | 360 to 364
C=CCc1cc2c(cc1O)CCC(=O)N2CC=C(C)C | 148 to 150
COC(=O)CCCOc1cc(C(=O)O)ccc1NC(=O)NC(=O)c1cc(F)c(F)cc1Cl | 227
COc1cccc(CCNC(=O)c2nc(N)sc2-c2ccncc2)c1OC | 167 to 168
Cc1c(C(C)CC(=O)O)n(Cc2ccc(Cl)cc2)c2ccc(F)cc12 (stereo unspecified) | 143
COc1ccccc1NC(=O)Nc1nc(O)ncc1F | 247 to 250
CC(C)C(Br)C(=O)NCC(=O)O (stereo unspecified) | 138 to 139
COc1ccc(CSC(C)(C)C(O)(CO)c2ccc(F)cc2F)cc1 (stereo unspecified) | 113
c1nc(Nc2ccc3[nH]ccc3c2)c2sc(-c3ccc(CNC4CC4)cc3)cc2n1 | 176 to 180
c1ccc2c(-n3cncn3)ccnc2c1 | 147 to 149
COC(=O)c1cnc(N)c(N)c1 | 154 to 155
COC(=O)c1ccc2c(c1)C(SCCO)c1ccccc1CC2 (stereo unspecified) | 107 to 109
Cc1cc(-c2ccc(-c3ccco3)cc2)n(-c2ccc(S(C)(=O)=O)cc2)c1 | 193 to 194
COC(=O)CCCc1cc2cc(Cl)ccc2n1S(=O)(=O)c1ccc2ccccc2c1 | 116 to 118
Cc1ccc(Oc2c([N+](=O)[O-])cc(C(=O)O)cc2S(N)(=O)=O)cc1 | 236
COc1cc2c3c(c1)c(Cl)c(C(=O)N1CCc4ccccc41)c(=O)n3CCO2 | 158 to 160
CC(C)(C)C1CCc2oc(=O)c(-c3ccccc3)c(O)c2C1 (stereo unspecified) | 195
Cn1c(C#N)ccc1-c1cc(F)c2c(c1)C1(CC1)C(=O)N2 | 228 to 231
Nc1ncnc2[nH]c(Br)c(-c3ccc(Oc4ccccc4)cc3)c12 | 282 to 283
O=C(Nc1cccc(-c2ccnc3c(C(=O)c4cccs4)cnn23)c1)OCc1ccccn1 | 121 to 125
CCOC(=O)c1cc2ccc3c4ccccc4ccc3c2n1C | 136 to 138
CCOC(=O)n1c(C)c(Cc2ccc(Cl)cc2Cl)c2nc(C#N)ccc21 | 112 to 113

Structure (SMILES) | melting point [°C]
CC(=O)NC(C)Cc1ccc(CCCC(=O)O)cc1 (stereo unspecified) | 114 to 117
COC1OCC[C@@H]1NC(=O)[C@H](CC(C)C)NC(=O)[C@H](CC(C)C)NC(=O)[C@H](CC(C)C)NC(=O)c1ccc2c(c1)Nc1ccccc1S2 (stereo partly specified) | 164 to 165
CCOc1ccc2c(c1)n(C1CCCCC1)c(=O)n2Cc1ccc(NC(=O)N(C)CCO)cc1OC | 157
COC(=O)c1cccc(/C=C/c2cc3ccccc3o2)c1 | 98 to 100
FCc1ccc(-c2cn([C@H]3CN4CCC3CC4)nn2)cc1 | 138
O=C(Nc1ccc(F)cc1F)Nc1cnc2cnccc2c1-c1ccccc1Cl | 213 to 216
c1ccc([C@@]23O[C@@H]2CCc2ccccc23)cc1 | 124 to 126
Cc1ccc(C2=NNC(=O)CC2)c(OCC(O)CNC(C)(C)C)c1 (stereo unspecified) | 130
COc1cc(C(=O)/C=C/c2c(-c3ccc(F)cc3)nc3sccn23)cc(OC)c1OC | 222 to 225
Ic1cnc(-c2cccs2)s1 | 117 to 119
Cc1cc(C)c2ccc(NC(=O)Nc3ccccc3CCc3cc(C(C)(C)C)c(O)c(C(C)(C)C)c3)nc2n1 | 235 to 237
COC(=O)Cc1cc(Br)ccc1OCc1ccc(OCc2nc(-c3ccccc3)oc2C)cc1 | 100 to 101
Nc1ccc(S(=O)(=O)Nc2cccc(OP(N)(N)=O)c2)cc1 | 185 to 186
CC(C)(C)OC(=O)NCC1CCN(Cc2ccccc2)C1 (stereo unspecified) | 51 to 54
CCS(=O)(=O)CCC(=O)NNC(=O)N1Cc2ccccc2Oc2ccc(C(F)(F)F)cc21 | 139 to 145
CCOC(=O)CC(C(=O)c1ccccc1)C(=O)c1ccccc1 | 81 to 83
Clc1ccc(-n2c(Cl)nc3ccccc32)c(Cl)c1 | 80 to 83
Cc1cccc(Cn2c(NC3CCN(CCNc4ncccn4)CC3)nc3cccnc32)n1 | 187
O=Cc1ccc(OCc2cn(C(c3ccccc3)(c3ccccc3)c3ccccc3)cn2)cc1 | 181 to 182
CCNc1cc(O)c(C(C)=O)cc1C(C)=O | 103 to 104
CCCCCCCNC(=O)CCCCO | 53 to 54
COc1ccccc1NC(=S)c1ccc(C)cc1 | 91 to 93
CNc1c([N+](=O)[O-])cc2c(=O)c(C(=O)O)cn(-c3cc(N)c(F)cc3F)c2c1C | 275 to 281
O=C(c1ccc(F)cc1)C1CCN(CCCn2c(=O)[nH]c3cccc(Cl)c32)CC1 | 138
Oc1ccc(-n2cnc3cc(O)cc(O)c3c2=S)cc1 | 299 to 302
O=C1CCC(n2cnc(-c3ccc(F)cc3)c2-c2ccnc(Nc3ccccc3)n2)CC1 | 205 to 207

Structure (SMILES) | melting point [°C]
FC(F)(F)C(=C1SCCCS1)c1ccccc1 | 87 to 88
CNc1nc(-c2ccc3c(c2)NC(=O)CO3)c(-c2ccccc2)s1 | 236 to 248
CC12CCC(=O)C=C1CCC1C2CCC2(C)C(C(=O)c3ccccc3)CCC12 (stereo unspecified) | 171 to 173
CCOC(=O)c1ccc2cc[nH]c2c1 | 72 to 75
CC(Cl)(Cl)C(NC(=O)c1ccc(Cl)cc1)NC(=N[N+](=O)[O-])Nc1cccnc1 (stereo unspecified) | 170 to 172
Cc1ccc2c(CCNCC#N)c[nH]c2c1 | 92
O=C(O)CCCc1cc2nc(Cl)ccc2n1S(=O)(=O)c1cccc(-c2ccccc2)c1 | 147 to 149
N#Cc1ccc2c(c1)Sc1ccccc1C=C2 | 108 to 110
CC(N)=CC(=O)C1CNC(C)S1(=O)=O (stereo unspecified) | 113 to 115
OCCN1CCN(c2nn(-c3ccc(C(F)(F)F)cc3)c3ccccc23)CC1 | 82 to 84
CS(=O)(=O)N1CCC(C2=C(C#N)C(c3cccc(C#N)c3Br)c3c[nH]nc3N2)CC1 (stereo unspecified) | > 280
Clc1ccc2sc(Cl)nc2c1 | 70
O=C1c2cc(O)ccc2OCN1CCO | 148 to 150
CCCCCCCCCCCCCCOc1ccc(CO)cc1 | 72 to 74
CCCCCC(C)C(C)c1cc(O)c2c(c1)OC(C)(C)C1=C2CN(C(C)C(=O)NC(N)=O)CC1 (stereo unspecified) | 95 to 100
COc1cc(N(C)C)ccc1Nc1nc(Nc2ccc3c(c2)C(C)(C)CCC(=O)N3C)ncc1Cl | 244 to 263
CS(=O)(=O)n1ccc(-c2ccc(Oc3ccccc3)cc2)n1 | 136
CCCCCCCCCCC(O)C(O)CNCc1ccccc1 (stereo unspecified) | 52.6 to 53
CCCc1[nH]cnc1C=O | 120 to 124
CCCN(Cc1ccc(-c2ccccc2-c2nnn[nH]2)cc1)C1(C(=O)O)C=NSN1 (stereo unspecified) | 97 to 98
COc1cc2c(O)nc(-c3ccc(Cl)cc3)nc2c(OC)c1OC | 289
N#Cc1c(Cl)c([N+](=O)[O-])cc2[nH]c(=O)c(=O)[nH]c12 | 327 to 331
CON=C(c1ccccc1)c1ccc2c(c1)C(C)(C)CCN2CCOc1ccc(CC(Nc2ccccc2C(=O)c2ccccc2)C(=O)O)cc1 (stereo unspecified) | 100 to 102
CCOCc1nc2c(N)nc3cccnc3c2n1CCCC(=O)N1CCOCC1 | 156 to 157
COP(=O)(NC1C(=O)N2C(C(=O)OCc3ccc([N+](=O)[O-])cc3)=C(C=CN(C)C)CSC12)OC (stereo unspecified) | 236 to 237
Cc1cccc(C(=O)NC(Nc2c(Nc3cccnc3)c(=O)c2=O)C(C)(C)Cc2ccccc2)c1 (stereo unspecified) | 234 to 235

Structure (SMILES) | melting point [°C]
CC1SC(c2cccnc2)N(CC(=O)OC(C)(C)C)C1=O (stereo unspecified) | 108
C#CC(O)(c1ccccc1)c1ccncc1 (stereo unspecified) | 165 to 166
CC(Cl)C(=O)Nc1ccccc1C(=O)CC(=O)Nc1nccs1 (stereo unspecified) | 204
CCN1CCN(C(C(=O)O)c2ccc(Nc3nc(-c4cccc(NC(=O)c5cc6c(s5)CCCCC6)c4C)cn(C)c3=O)cc2)CC1 (stereo unspecified) | 168 to 170
O=S(=O)(F)c1cc2nc(Cl)c(Cl)nc2cc1Cl | 109 to 111
Cc1oc(-c2ccccc2)nc1COc1ccc(OCc2nc(-c3ccccc3)oc2CO)cc1 | 157 to 158
CC1=C(CN2CC(C(=O)O)C2)CCc2cc(OCc3ccc(C(F)(F)F)cc3C(F)(F)F)ccc21 | 155 to 165
C(=C(c1ccccc1)c1ccccc1)c1ccccn1 | 117 to 119
CCc1nn(CCO)c(CC)c1Oc1cc(-n2cccn2)cc(-n2cccn2)c1 | 108 to 110
Cc1ccc(Sc2nc(Cl)cc(OCCC(C)C)n2)cc1 | 83 to 86
Cc1ccc(C2c3c(C)c(N4C(=O)CC(c5ccccc5)C4=O)c(C)c(C)c3OC2(C)C)cc1 (stereo unspecified) | 130 to 131
N=C(N)c1ccc(C(=O)Nc2cc(C(=O)NCCC(=O)O)ccc2OCc2ccccc2)cc1 | > 250
N#CCCSN1C(=O)c2ccccc2C1=O | 162 to 164
O=C(CCl)c1ccc(OCCOc2ccc(C(=O)CCl)cc2)cc1 | 165
C=C1CCC2C3CCC4=C(CC=C(OC)C4)C3CCC12C (stereo unspecified) | 77 to 78
COc1ccc(C(=O)Nc2c(Cl)cncc2Cl)c2c1OCCCCO2 | 115 to 117
C=CC1CC2=C(CC=C(OC)C2)C2CCC3(C)C(=CCC3O)C12 (stereo unspecified) | 129 to 136
C=CCn1cc(C(=O)O)c(=O)c2cc(F)c(N3CCOCC3)cc21 | 210
Cn1c(CO)nnc1NCCCOc1cccc(CN2CCCCC2)c1 | 151 to 152
CC(C)c1cc(C(C)(C)C)cc(-c2ccc(F)cc2)c1O | 109 to 111
CCOC(=O)c1ccc(NC(C)=O)c(CC(O)CO)c1 (stereo unspecified) | 114 to 116
C=CC[Si](C)(C)c1cccc(Cl)c1C(=O)NCC | 61 to 63
COc1cn(-c2ccc(N3CCCC(F)(F)C3)cc2F)nc(-c2ccnn2-c2ccccc2)c1=O | 182 to 187
